Laboratory results from patent publication US20190022043A1, “METHODS OF USING CASPASE INHIBITORS IN TREATMENT OF LIVER DISEASE” (Conatus Pharmaceuticals Inc., priority 2015, published 2019).

Key:
Format in all cases: in vivo, human
[1] = system: patients with liver cirrhosis; assay: Phase 2 clinical trial in liver cirrhosis: common indicators of liver damage (ALT, AST); conditions: overall patient population
Experimental: (§1) A double-blind, placebo-controlled Phase 2 clinical trial was conducted at 26 U.S. sites and enrolled 86 patients with liver cirrhosis due to different etiologies, mild to moderate liver impairment as determine by Child Pugh classification and baseline MELD scores of 11 to 18. Patients were randomized 1:1 to receive either 25 mg of emricasan (IDN-6556) or placebo orally twice daily for three months. Endpoints included a change from baseline in cCK18 and changes from baseline in MELD and Child-Pugh scores, which are composite scores of laboratory parameters associated with liver synthetic and excretory function, such as serum albumin levels, international normalized ratio (INR) and total bilirubin levels.
(§2) Among the 86 subjects enrolled and receiving study drug, liver cirrhosis etiologies included alcohol (39%), hepatitis C virus (29%), non-alcoholic steatohepatitis, or NASH (23%), and other causes (9%). Baseline MELD scores were […] in 78% of enrolled subjects and >15 in 22% of enrolled subjects. Baseline Child-Pugh status was A in 43% of subjects and B in 56% of subjects.

[2] = system: caspase-driven cell death (cCK18, caspase 3/7, flCK18); assay: Phase 2 clinical trial in liver cirrhosis: mechanism-based biomarkers (cCK18, caspase 3/7, flCK18); conditions: overall patient population
Experimental: as §1, §2

[3] = system: patients with liver cirrhosis; assay: Phase 2 clinical trial in liver cirrhosis: liver function (MELD score, Child-Pugh score, total bilirubin, INR, albumin); conditions: for INR Change at Month 3 / Total bilirubin Change at Month 3 / Albumin Change at Month 3 / Child-Pugh score Change at Month 3 / MELD score Change at Month 3: 25 mg orally twice daily, three months, LOCF
Experimental: as §1, §2
The overall trends were driven by statistically significant improvements in MELD and Child-Pugh scores in a high medical need subgroup of patients with baseline MELD scores ≥15, the established prerequisite for listing a patient for liver transplant.

[4] = baseline MELD ≥15 subgroup, after three months of treatment, placebo two of ten

`C[C@H](NC(=O)C(=O)Nc1ccccc1C(C)(C)C)C(=O)N[C@@H](CC(=O)O)C(=O)COc1c(F)c(F)cc(F)c1F` [Emricasan, (3S)-3-[N—(N′-(2-tert-Butylphenyl) Oxamyl)Alaninyl]Amino-5-(2′,3′,5′,6′-Tetrafluorophenoxy)-4-Oxopentanoic Acid] was tested, and the “common indicators of liver damage (ALT, AST)” value [1] was “positive changes”, the “ALT Change at Month 3 (median change)” value ([1]; N = 44, 25 mg orally twice daily, three months, LOCF, baseline 27.5, p 0.03 vs placebo) was −3.0 U/L and the “AST Change at Month 3 (median change)” value ([1]; N = 44, 25 mg orally twice daily, three months, LOCF, baseline 50.0, p 0.08 vs placebo) was −5.0 U/L. The “other mechanism-based biomarkers (caspase 3/7, flCK18)” value [2] was “positive changes”, the “cCK18 Change at Month 3” value ([2]; N = 44, 25 mg orally twice daily for three months, last observation carried forward, baseline 289 U/L (geometric mean), p 0.04 vs placebo) was −4.6% and the “flCK18 Change at Month 3” value ([2]; N = 44, 25 mg orally twice daily, three months, LOCF, baseline 714 U/L, p 0.005 vs placebo) was −18%. For the same molecule, the “Caspase 3/7 Change at Month 3” value ([2]; N = 44, 25 mg orally twice daily, three months, LOCF, baseline 2656 RLU, p <0.0001 vs placebo) was −45.5%, the “caspase-cleaved cytokeratin 18 (cCK18) vs. placebo” value ([2]; adjusted for baseline MELD score and disease etiology, p=0.04) was “statistically significant reduction” and the “INR Change at Month 3” value ([3]; baseline MELD score ≥15 patient population, N = 9, baseline 1.54, p 0.0004 vs placebo) was −0.14. For the same molecule, the “Total bilirubin Change at Month 3” value ([3]; baseline MELD score ≥15 patient population, N = 9, baseline 3.17, p 0.03 vs placebo) was -0.55 mg/dL, the “Albumin Change at Month 3” value ([3]; baseline MELD score ≥15 patient population, N = 9, baseline 3.41, p 0.78 vs placebo) was “+0.07 g/dL” and the “Child-Pugh score Change at Month 3” value ([3]; baseline MELD score ≥15 patient population, N = 9, baseline 7.8, p 0.003 vs placebo) was −0.6. The “MELD score Change at Month 3” value ([3]; baseline MELD score ≥15 patient population, N = 9, baseline 16.0, p 0.003 vs placebo) was −1.6, the “patients with an increase in Child-Pugh score” value ([3]; baseline MELD ≥15 subgroup, after three months of treatment, placebo four out of ten (at least one point increase)) was “none of nine” and the “patients who achieved a reduction in MELD score to below 14” value ([3]; baseline MELD ≥15 subgroup, after three months of treatment, placebo one out of ten) was “Four of nine”. The “patients who achieved at least a 2 point reduction in MELD score” value [3, 4] was “Six of nine”, the “patients with at least a one point reduction in Child Pugh score” value [3, 4] was “Four of nine” and the “INR Change at Month 3” value ([3]; overall patient population, N = 44, baseline 1.33, p 0.12 vs placebo) was −0.02. The “Total bilirubin Change at Month 3” value ([3]; overall patient population, N = 44, baseline 2.25, p 0.19 vs placebo) was -0.05 mg/dL, the “Albumin Change at Month 3” value ([3]; overall patient population, N = 44, baseline 3.46, p 0.38 vs placebo) was “+0.02 g/dL” and the “Child-Pugh score Change at Month 3” value ([3]; overall patient population, N = 44, baseline 6.9, p 0.10 vs placebo) was −0.2. For the same molecule, the “MELD score Change at Month 3” value ([3]; overall patient population, N = 44, baseline 12.8, p 0.50 vs placebo) was −0.1.
